Laboratory results: ChEMBL document CHEMBL4825732, “Discovery of the Selective Protein Kinase C-θ Kinase Inhibitor, CC-90005” (J Med Chem, 2021)

Key:
[1] = Apparent permeability across apical to basolateral side in human Caco2 cells; type: ADME, cell-based; details: Caco-2
[2] = Volume of distribution at steady state in iv dosed rat; type: ADME, organism-based; details: in vivo, read-out: Vdss
[3] = Oral bioavailability in mouse at 10 mg/kg; type: ADME, organism-based; details: in vivo
[4] = Oral bioavailability in dog at 10 mg/kg; type: ADME, organism-based, Canis lupus familiaris; details: in vivo
[5] = Oral bioavailability in rat at 10 mg/kg; type: ADME, organism-based; details: in vivo

Row | Papp A→B [1] | Vd [2] | bioavailability [3] | bioavailability [4] | bioavailability [5] | SMILES
1 | 11 ×10⁻⁶ cm/s |  |  |  |  | CC1(C)[C@@H](O)C[C@H]1Nc1nc(NCc2cncnc2OCC(F)F)ncc1C#N
2 | 36 ×10⁻⁶ cm/s |  |  |  |  | CC(C)(F)c1ncncc1CNc1ncc(C#N)c(N[C@@H]2C[C@H](O)C2(C)C)n1
3 |  | 27.7 L/kg |  |  |  | CC1(C)CC(Nc2cc(NCc3cnccc3C(F)(F)F)ncc2C#N)CC(C)(C)N1
4 | 27 ×10⁻⁶ cm/s |  | 17% | 46% | 66% | CC(F)(F)COc1ncncc1CNc1ncc(C#N)c(N[C@@H]2CC[C@H](O)C(C)(C)C2)n1
